Test results from US20100105772A1, “USE OF NOVEL LIPID MEDIATORS TO INHIBIT ANGIOGENESIS” (priority 2008, published 2010).

Legend:
VEGFR-3 mRNA = assay: Real-time PCR of VEGFR-3 mRNA in suture-induced inflamed corneas; assay type: in vivo, mice; settings: after suture placement; vs vehicle-treated controls
Procedure: (§1) FIG. 4. The Impact of Lipoxin on the mRNA Expression of VEGFs and VEGFRs in Inflamed Corneas. ATLa or vehicle was subconjunctivally injected at 0 h and 48 h after suture placement. For each compound treatment, corneas were harvested from a group of mice at 24 h, and another group at 72 h after suture placement, as well as from normal untreated control corneas (6 corneas per group). (A) VEGF ligand species (VEGF-A, VEGF-C, VEGF-D) and (B) VEGFRs (VEGFR2 and VEGFR3) were tested by real-time PCR and normalized to GAPDH mRNA. Values are expressed as fold change over the normal control cornea. Results represent the mean (±SEM) of three samples per group (each sample consisted of 2 pooled corneas), and the data are representative of two independent experiments (*P<0.05, **P<0.001, ***P<0.0005, vs vehicle-treated group, t-test). […]
(§2) BALB/c mice were randomized to receive ATLa, or vehicle (normal saline) by subconjunctival injection in a masked fashion after suture or hydron pellet placement. […] ATLa was synthesized as described previously.^20 The physical properties were monitored routinely via LC/MS/MS matching the reported biological and physical properties prior to analysis in present experiments. […]

VEGF-C mRNA = assay: Real-time PCR of VEGF-C mRNA in suture-induced inflamed corneas; assay type: in vivo, mice; settings: 24 h and 72 h after suture placement; vs vehicle-treated group
Procedure: as §1, §2

[1] = stable analog of LXA4/ATL; reference 36; cited from earlier work
mouse IL-1 beta = assay: ELISA of IL-1 beta protein in homogenates of suture-induced inflamed corneas; assay type: in vivo, mice
Procedure: FIG. 7. ATLa Regulates IL-1β. Mice were treated at Oh and 48 h after suture-placement with ATLa or vehicle. Whole corneas were excised at 72 h, and subsequently freeze-thawed 3 times. Cornea was then homogenized using a pellet pestile motor with additional protease inhibitors. Homogenates were centrifuged at 12,000 rpm for 5 minutes and the supernatant was assayed for mouse IL-1 beta via ELISA (eBioscience, USA) according to the manufacturer's instructions.
The standard model for induction of inflammatory corneal NV is associated with development of intrastromal vessels in close association with a mixed-cell (primarily neutrophilic) infiltrate.^14,15 Three interrupted sutures (11-0 nylon, Sharpoint; Vanguard, Houston, Tex.) were placed intrastromally with two stromal incursions extending over 120° of the corneal circumference each to induce inflammatory corneal NV, which is also associated with significant LA, as described previously.^14 The corneas were followed by slit-lamp biomicroscopy for corneal NV development. […]
BALB/c mice were randomized to receive ATLa, or vehicle (normal saline) by subconjunctival injection in a masked fashion after suture or hydron pellet placement. […] ATLa was synthesized as described previously.^20 The physical properties were monitored routinely via LC/MS/MS matching the reported biological and physical properties prior to analysis in present experiments.

IL-1α mRNA = assay: Real-time PCR of IL-1α mRNA in suture-induced inflamed corneas; assay type: in vivo, mice; settings: 24 h and 72 h after suture placement; vs vehicle
Procedure: FIG. 3. Lipoxin Reduces Cytokine mRNA Expressions in Inflamed Corneas. ATLa or vehicle was subconjunctivally injected at 0 h and 48 h after suture placement. For each compound treatment, corneas were harvested from a group of mice at 24 h, and another group at 72 h after suture placement, as well as from normal untreated control corneas (6 corneas per group). mRNA levels of inflammatory cytokines (including IL-1α, IL-1β, and TNF-α) were determined by real-time PCR. Data were normalized to GAPDH mRNA and values were expressed as the fold change over normal control corneas. Results represent the mean (±SEM) of three samples per group (each sample consisted of 2 pooled corneas), and data are representative of two independent experiments (*P<0.05, **P<0.001 vs vehicle-treated group, t-test). […]
as §2

VEGF-A mRNA = assay: Real-time PCR of VEGF-A mRNA in suture-induced inflamed corneas; assay type: in vivo, mice; settings: 24 h and 72 h after suture placement; vs vehicle-treated group
Procedure: as §1, §2

COC(=O)CCC[C@H](O)[C@H](O)/C=C/C=C/C=C\C=C\[C@H](O)COc1ccc(F)cc1 [ATLa, 15-epi-16-(para-fluoro)-phenoxy-lipoxin A4 methyl ester]
VEGFR-3 mRNA expression (VEGFR-3 mRNA): not significantly altered
VEGF-C mRNA expression (VEGF-C mRNA): lower
local inactivation (stability) [1]: resists local inactivation
IL-1 beta in corneas (mouse IL-1 beta; ELISA of corneal homogenate supernatant, 72 h, treated at 0 h and 48 h, n=4): 21.3 ± 0.8 pg/mL
decrease in IL-1β protein level (mouse IL-1 beta; ELISA, 72 h after suture placement, vs vehicle-treated group): 70%
expression of IL-1α (mRNA) (IL-1α mRNA): not significantly altered
VEGF-A mRNA expression (VEGF-A mRNA): lower
